Experimental data published in patent US8697685B2, “Chemical compounds” (GlaxoSmithKline LLC, priority 2008, dated 2014).

Biological target: T1, full length PDK1 (Homo sapiens, UniProt O15530)
T1 construct: Full-length human 3-Phosphoinositide Dependent protein Kinase-1; made in house; host or cells: baculovirus / Sf9 insect cells
T1 sequence (O15530 1-556): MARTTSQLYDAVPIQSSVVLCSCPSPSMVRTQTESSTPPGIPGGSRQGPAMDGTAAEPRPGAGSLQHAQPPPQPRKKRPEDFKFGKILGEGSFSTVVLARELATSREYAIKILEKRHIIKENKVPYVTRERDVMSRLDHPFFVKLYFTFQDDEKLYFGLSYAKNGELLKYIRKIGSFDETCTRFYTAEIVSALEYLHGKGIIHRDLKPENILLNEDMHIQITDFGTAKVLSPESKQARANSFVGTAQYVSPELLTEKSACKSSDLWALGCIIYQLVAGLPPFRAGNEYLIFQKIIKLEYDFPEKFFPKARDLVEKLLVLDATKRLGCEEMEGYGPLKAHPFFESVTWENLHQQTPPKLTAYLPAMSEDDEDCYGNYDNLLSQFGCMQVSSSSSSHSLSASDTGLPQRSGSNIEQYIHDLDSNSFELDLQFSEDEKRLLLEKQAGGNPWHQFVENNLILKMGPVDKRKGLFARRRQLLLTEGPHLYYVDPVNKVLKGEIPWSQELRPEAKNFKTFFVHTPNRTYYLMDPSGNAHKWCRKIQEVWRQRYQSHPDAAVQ
Test: PDK1 enzyme assays (substrate phosphorylation: LEADseeker scintillation proximity, TR-FRET, PDKtide)
Type: biochemical
Conditions: in at least one experimental run, read-out: IC50 against full length PDK1
Description: Substrate phosphorylation assays are carried out as follows:
Biotinylated-hAKT1: Human AKT1 (containing amino acid residues 136-480, as annotated by National Center for Biotechnology Information (NCBI) accession number AAL55732.1, with a MetLysLysHis6 N-terminal addition) is purified to >90% from lysate of baculovirus expression by Nickel Chelating ProBond resin (InVitrogen), Q-Sepharose Fast Flow, and Superdex 200 size exclusion chromatography. Biotinylation is achieved using EZ-Link Sulfo-NHS-LC Biotin (Pierce). Samples, in 25 mM HEPES, pH 7.5, 200 mM NaCl, 2 mM DTT, and 30% glycerol are stored at −80C until use.
Full-length human 3-Phosphoinositide Dependent protein Kinase-1 (hPDK1; National Center for Biotechnology Information (NCBI) accession number AAH39158.1 with a MetGlyHis6 N-terminal addition) is purified from baculovirus expression in Sf9 cells. Purity of approximately 80% is achieved by the use of chelation chromatography (Ni-NTA Superflow) and desalting columns. Samples, in 25 mM HEPES, 150 mM NaCl, 2.5 mM DTT, 0.05% Triton, 30% glycerol, pH 8.0, are stored at −80° C. until use.
The 39 amino acid biotinylated-PDKtide peptide Seq. ID No. 1: (Biotin-Ahx-[…]) was custom synthesized by 21st Century Biochemicals. […] The concentration was confirmed by quantitative amino acid analysis.
Scintillation Proximity (LEADseeker) Kinase Assay of Purified hPDK1:
Assays are performed in 384-well microtiter plates (Greiner, Catalog No. 784075). The reaction volume (10 μl) contains, in final concentrations, 25 mM MOPS (pH 7.5), 10 mM MgCl2, 50 mM KCl, 0.1 mg/ml BSA, 1 μM ATP, 3 uCi/ml ^33PγATP, 5 mM DTT, 1 mM CHAPS or 0.05% Tween20, 0.35 μM AKT1 biotinylated protein, and 10 nM hPDK1.
Compounds, titrated in DMSO, are evaluated at eleven concentrations ranging from 50 μM to 2 μM. […] Reactions are stopped after 3 hours at room temperature by the addition of 50 mM EDTA, 5 mg/ml LEADseeker beads (GE Healthcare) in PBS (10 ul). Beads are allowed to settle overnight, and samples are imaged on Viewlux (PerkinElmer).
The data for compound concentration responses were plotted as % Inhibition, calculated with the data reduction formula 100*(1−[(U1−C2)/(C1−C2)]), versus concentration of compound, where
Data were fitted to the curve described by:
TR-FRET Kinase Assay of Purified hPDK1:
Assays are performed in 384-well microtiter plates (Greiner, Catalog No. 784076).
As previously described for the Scintillation Proximity protocol, hPDK1 is pre-incubated (30 minutes at room temperature) with compounds before initiating phosphorylation of AKT1 by addition of substrate to the hPDK1 and compound mix. Reactions are stopped after 4-6 hours at room temperature by the addition to final concentrations of 0.02 M EDTA, 0.0875 μM Streptavidin APC (PerkinElmer), 0.03 μM AKT1 (phospho T308) antibody (Abcam Inc.), 0.00375 μM Lance Eu-labeled anti rabbit IgG Antibody (PerkinElmer). Antibody binding reaches equilibrium in 30 minutes before signal is read on an EnVision™ 2103 Multilabel Reader (PerkinElmer). APC Signals are normalized to Europium signal. Data processing is the same as described for the Scintillation Proximity assay with the exception of the generation of the “C2” control by addition of buffer without hPDK1 to control wells at t=0 instead of EDTA.
Scintillation Proximity (LEADseeker) Kinase Assay of Purified hPDK1 using Biotinylated-PDKtide Peptide:
Assays are performed in 384-well microtiter plates (Greiner, Catalog No. 784075). The reaction volume (10 μl) contains, in final concentrations, 25 mM MOPS (pH 7.5), 10 mM MgCl2, 50 mM KCl, 0.1 mg/ml BSA, 1 μM ATP, 3 uCi/ml ^33PγATP, 5 mM DTT, 0.5 mM CHAPS, 1 μM biotinylated-PDKtide peptide, and 0.5 nM hPDK1.
Compounds, titrated in DMSO, are evaluated at eleven concentrations ranging from 25 μM to 0.4 pM. […] Reactions are stopped after 4 hours at room temperature by the addition of 50 mM EDTA, 5 mg/ml LEADseeker beads (GE Healthcare) in PBS (10 ul).

IC50 [nM] | SMILES
< 100 | Nc1nc(NCc2ccccc2)cc(-c2ccc3c(N)n[nH]c3c2)n1 [Example 2, 6-(3-Amino-1H-indazol-6-yl)-N^4-(phenylmethyl)-2,4-pyrimidinediamine]
< 100 | Nc1nc(NCC2CCCCC2)cc(-c2ccc3c(N)n[nH]c3c2)n1 [Example 38, 6-(3-Amino-1H-indazol-6-yl)-N^4-(cyclohexylmethyl)-2,4-pyrimidinediamine]
< 150 | CC[C@@H]1CCCN1c1cc(-c2ccc3c(N)n[nH]c3c2)nc(N)n1 [Example 46, 6-{2-Amino-6-[(2R)-2-ethyl-1-pyrrolidinyl]-4-pyrimidinyl}-1H-indazol-3-amine]
< 100 | Nc1nc(NC2CC2)cc(-c2ccc3c(N)n[nH]c3c2)n1 [Example 51, 6-(3-Amino-1H-indazol-6-yl)-N^4-cyclopropyl-2,4-pyrimidinediamine]
< 100 | CCCNc1cc(-c2ccc3c(N)n[nH]c3c2)nc(N)n1 [Example 74, 6-(3-Amino-1H-indazol-6-yl)-N^4-propyl-2,4-pyrimidinediamine]
< 20 | CNc1nc(-c2ccc3c(N)n[nH]c3c2)cc(N2C[C@@H](C(=O)NCc3ccccc3)CC[C@H]2C)n1 [Example 80, (3S,6R)-1-[6-(3-Amino-1H-indazol-6-yl)-2-(methylamino)-4-pyrimidinyl]-6-methyl-N-(phenylmethyl)-3-piperidinecarboxamide]
< 20 | CNc1nc(-c2cc(F)c3c(N)n[nH]c3c2)cc(N2C[C@@H](C(=O)NC3CCCCC3)CC[C@H]2C)n1 [Example 85, (3S,6R)-1-[6-(3-Amino-4-fluoro-1H-indazol-6-yl)-2-(methylamino)-4-pyrimidinyl]-N-cyclohexyl-6-methyl-3-piperidinecarboxamide]
< 50 | CC1CCC(NC(=O)OC2CCCC2)CN1c1cc(-c2ccc3c(N)n[nH]c3c2)nc(N)n1 (stereo not drawn) [Example 120, Cis-cyclopentyl{1-[2-amino-6-(3-amino-1H-indazol-6-yl)-4-pyrimidinyl]-6-methyl-3-piperidinyl}carbamate]
< 20 | C[C@@H]1CC[C@H](C(=O)NC2CCCC2)CN1c1cc(-c2ccc3c(N)n[nH]c3c2)nc(N)n1 [Example 142, (3S,6R)-1-[2-amino-6-(3-amino-1H-indazol-6-yl)-4-pyrimidinyl]-N-cyclopentyl-6-methyl-3-piperidinecarboxamide]
< 20 | C[C@@H]1CC[C@H](C(=O)NCCc2ccccc2)CN1c1cc(-c2ccc3c(N)n[nH]c3c2)nc(N)n1 [Example 149, (3S,6R)-1-[2-Amino-6-(3-amino-1H-indazol-6-yl)-4-pyrimidinyl]-6-methyl-N-(2-phenylethyl)-3-piperidinecarboxamide]
< 150 | CC[C@@H]1COCCN1c1cc(-c2cc(NC3CCCC3)c3c(N)n[nH]c3c2)nc(NC)n1 [Example 181, N^4-Cyclopentyl-6-[6-[(3R)-3-ethyl-4-morpholinyl]-2-(methylamino)-4-pyrimidinyl]-1H-indazole-3,4-diamine]
< 150 | CCOc1cc(-c2cc(N3CCOC[C@H]3CC)nc(NC)n2)cc2[nH]nc(N)c12 [Example 184, 6-[6-[(3R)-3-Ethyl-4-morpholinyl]-2-(methylamino)-4-pyrimidinyl]-4-(ethyloxy)-1H-indazol-3-amine]
< 150 | CCOc1cc(-c2cc(N3CCOC[C@H]3C(C)C)nc(N)n2)cc2[nH]nc(N)c12 [Example 199, 6-{2-Amino-6-[(3R)-3-(1-methylethyl)-4-morpholinyl]-4-pyrimidinyl}-4-(ethyloxy)-1H-indazol-3-amine]
< 150 | COc1cc(-c2cc(N3CCOC[C@H]3C)nc(N)n2)cc2[nH]nc(N)c12 [Example 200, 6-{2-Amino-6-[(3R)-3-methyl-4-morpholinyl]-4-pyrimidinyl}-4-(methyloxy)-1H-indazol-3-amine]
< 50 | CNc1nc(-c2cc(OC)c3c(N)n[nH]c3c2)cc(N2CCC[C@@H](NC(=O)OC(C)(C)C)C2)n1 [Example 203, 1,1-Dimethylethyl{(3R)-1-[6-[3-amino-4-(methyloxy)-1H-indazol-6-yl]-2-(methylamino)-4-pyrimidinyl]-3-piperidinyl}carbamate]
< 50 | Nc1nc(-c2ccc3c(N)n[nH]c3c2)cc(N2CCC[C@@H](NC(=O)OC3CCC3)C2)n1 [Example 209, Cyclobutyl{(3R)-1-[2-amino-6-(3-amino-1H-indazol-6-yl)-4-pyrimidinyl]-3-piperidinyl}carbamate]
< 50 | Nc1nc(-c2ccc3c(N)n[nH]c3c2)cc(N2CCC[C@@H](N3CCOC3=O)C2)n1 [Example 211, 3-{(3R)-1-[2-Amino-6-(3-amino-1H-indazol-6-yl)-4-pyrimidinyl]-3-piperidinyl}-1,3-oxazolidin-2-one]
< 50 | CC(C)OC(=O)N[C@@H]1CCCN(c2cc(-c3ccc4c(N)n[nH]c4c3)nc(N)n2)C1 [Example 217, 1-Methylethyl{(3R)-1-[2-amino-6-(3-amino-1H-indazol-6-yl)-4-pyrimidinyl]-3-piperidinyl}carbamate]
